Assay results: PubChem BioAssay (NCI)
“And” between values parts separate entries of the source, which are not always exact repeats. Identical values can stand only once.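 96-well plates; 48 h exposure; 5 concentrations. Endpoints by linear interpolation between flanking doses. Not reached: highest tested concentration assigned. GI50 marks 50% less growth. The concentration for full growth arrest is given as TGI.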

Tests used:
Test in all cases: growth of human tumour cells (NCI), 48 h
[1] = tested on: NCI-H522 lung
[2] = tested on: MOLT-4 leukemia
[3] = tested on: SF-295 CNS
[4] = tested on: COLO 205 colon
[5] = tested on: UACC-62 melanoma
[6] = tested on: EKVX NSCLC
[7] = tested on: SN12C renal
[8] = tested on: M14 melanoma
[9] = tested on: CCRF-CEM leukemia
[10] = tested on: U251 CNS

SMILES | GI50 [1] [µM] | TGI [1] [µM] | GI50 [2] [µM] | TGI [2] | GI50 [3] [µM] | TGI [3] [µM] | GI50 [4] [µM] | TGI [4] [µM] | GI50 [5] [µM] | TGI [5] [µM] | GI50 [6] [µM] | TGI [6] [µM] | GI50 [7] [µM] | TGI [7] [µM] | GI50 [8] [µM] | TGI [8] [µM] | GI50 [9] [µM] | TGI [9] [µM] | GI50 [10] [µM] | TGI [10] [µM]
CC[C@@H](C(=O)[C@@H](C)[C@@H](O)[C@H](C)[C@@H]1O[C@@H]([C@@H](CC)C(=O)O)CC[C@@H]1C)[C@H]1O[C@]2(C=C[C@@H](O)[C@]3(CC[C@@](C)([C@H]4CC[C@](O)(CC)[C@H](C)O4)O3)O2)[C@H](C)C[C@@H]1C | 0.0469 | 0.47 | 0.911 | 5.17 µM | 0.447 | 7.71 | 0.489 | 11 | 1.04 | 2.33 | 1.11 | 24.8 | 0.226 | 44.8 | 1.39 | 3.05 | 0.255 | 12.7 | 0.149 | 8.91
CCCCCC/C(CC(=O)CCC(=O)NCCc1ccccc1)=N\Nc1ccc([N+](=O)[O-])cc1[N+](=O)[O-] | – | > 100 | – | 60.3 µM | – | > 100 | – | > 100 | – | > 100 | – | > 100 | – | > 100 | – | > 100 | – | 60.6 | – | > 100
C[C@@H]1Cc2c(ccc3[nH]ncc23)[C@@H](c2ccc(NC3CN(CCCF)C3)cn2)N1CC(F)(F)F | 20.2 | 45.7 | 19.6 | > 100 µM | 18 | 36.9 | 16.5 | 35.5 | 15.2 | 30.5 | 28.9 | > 100 | 24 | 79 | 16.5 | 32.2 | 21.1 | 67.3 | 15.8 | 36.7
CNc1nc(-c2ccc3c(N)n[nH]c3c2)cc(N2C[C@@H](C(=O)NC3CCCCC3)CC[C@H]2C)n1 | 4.52 | 18.3 | 1.84 | > 32.5 µM | 2.61 | 15.8 | 1.54 | 12 | 0.858 | 16.3 | 2.12 | 15.4 | 3.04 | 20.2 | 3.02 | 20.1 | 1.78 | > 48.1 | 3.88 | 17.9
CS(=O)(=O)CCNCc1ccoc1-c1ccc2ncnc(Nc3ccc(OCc4ccccc4)cc3)c2c1 | > 25 | > 25 | 20.1 | > 25 µM | > 25 | > 25 | 24.8 | > 25 | > 25 | > 25 | 1.03 | > 25 | > 25 | > 25 | > 25 | > 25 | 17.7 | > 25 | > 25 | > 25
Cc1c2ccccc2c(C)n2c1nc1cc(Cl)c(Cl)cc12 | 15.1 | 80.3 | 16 | 8.62 µM and 46.5 µM | > 100 | > 100 | 19.2 | > 100 | 45.2 | > 100 | 93.7 | > 100 | > 100 | > 100 | > 100 | > 100 | 43.9 | > 100 | 34.6 | > 100
O=C1CC2OCC=C3CN4CCC5(C(=O)O)C(N1)C2C3CC45 (stereo not given) | – | > 100 | – | > 100 µM | – | > 100 | – | > 100 | – | > 100 | – | > 100 | – | > 100 | – | > 100 | – | > 100 | – | > 100
O=C(CCc1cc(-c2ccc(F)cc2)n[nH]1)N(Cc1ccccc1)Cc1ccccc1 | – | > 100 | – | > 100 µM | – | > 100 | – | > 100 | – | > 100 | – | > 100 | – | > 100 | – | > 100 | – | > 100 | – | > 100
